Reference: patent US9988430B2, “Stable GLP-1 based GLP-1/glucagon receptor co-agonists” (Novo Nordisk A/S, priority 2014, dated 2018)
*1 amine or outer side, *2 acyl side, *3 side chain or, on linkers, in order; H or OH if unused. Where a SMILES comes first, the peptide text is derived from it. Side-chain parts run from the residue outwards. [ ]: non-standard residue; d: D form. The star is where a group is joined. C18 diacid = O=C(O)CCCCCCCCCCCCCCCCC(=O)*; γGlu = O=C(O)[C@H](CCC(=O)[*:2])N[*:1]; Desaminohistidyl = O=C(CCc1c[nH]cn1)*; Ac4c = NC1(C(=O)O)CCC1; AEEA = NCCOCCOCC(=O)O

Target: T1, human GLP-1 receptor (Homo sapiens, UniProt P43220)
T1 construct: expressed in transfected cells; host or cells: membranes of BHK cells, parent line BHKTS13, clone FCW467-12A
T1 sequence (P43220 24-463): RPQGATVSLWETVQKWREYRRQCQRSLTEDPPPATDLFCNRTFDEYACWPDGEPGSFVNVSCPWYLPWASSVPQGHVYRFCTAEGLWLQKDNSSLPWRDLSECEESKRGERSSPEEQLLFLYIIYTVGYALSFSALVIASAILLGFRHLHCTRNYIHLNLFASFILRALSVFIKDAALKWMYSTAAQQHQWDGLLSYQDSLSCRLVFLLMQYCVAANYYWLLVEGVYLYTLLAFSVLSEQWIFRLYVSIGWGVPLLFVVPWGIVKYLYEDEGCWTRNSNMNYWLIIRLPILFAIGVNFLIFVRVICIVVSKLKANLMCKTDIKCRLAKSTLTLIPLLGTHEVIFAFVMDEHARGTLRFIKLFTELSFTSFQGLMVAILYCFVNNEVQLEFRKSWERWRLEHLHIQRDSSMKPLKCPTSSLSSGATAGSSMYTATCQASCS
Assay: Assay (II)(a): GLP-1 receptor binding, [125I]GLP-1 displacement, SPA on BHK membranes
Conditions: displacement of [125I]GLP-1, membranes with human GLP-1 receptor; read-out: IC50 GLP-1R
Experimental: Assay (II): GLP-1 and Glucagon Receptor Binding The purpose of this assay is to test the in vitro receptor binding activity of the GLP-1 derivatives of the invention. (a) GLP-1 Receptor Binding The GLP-1 receptor (GLP-1R) binding is a measure of the affinity of a derivative for the human GLP-1 receptor. The GLP-1 receptor binding of each derivatives were determined with competitive binding, displacing [^125I]GLP-1 bound to GLP-1 receptors expressed in cell membranes associated with wheat germ agglutinin (WGA) scintillation proximity assay (SPA) beads. Each derivative was added in a series of concentrations to isolated membranes comprising the human GLP-1 receptor and displacement of the labelled radioligand was monitored. The receptor binding was reported as the concentration at which half of the labelled ligand is displaced from the receptor, the IC^50 value. The following chemicals were used in the assay: MEM w/o phenol red (Gibco 11880-028), Pen/strep (Invitrogen 15140-122), G418 (Invitrogen 10131-027), 1 M Hepes (Gibco 15630), EDTA (Invitrogen 15575-038), PBS (Invitrogen 14190-094), fetal calf serum (Invitrogen 16140-071), EGTA, MgCl2 (Merck 1.05832.1000), Tween 20 (Amresco 0850C335), SPA particles (wheat germ agglutinin (WGA) SPA beads, Perkin Elmer RPNQ0001), [125I]-GLP-1]-(7-36)NH2 (produced in-house), OptiPlate™-96 (Perkin Elmer). Buffer 1 consisted of 20 mM Na-HEPES plus 10 mM EDTA and pH was adjusted to 7.4. Buffer 2 consisted of 20 mM Na-HEPES plus 0.1 mM EDTA and pH was adjusted to 7.4. Assay buffer consisted of 50 mM HEPES supplemented with 5 mM EGTA, 5 mM MgCl2, 0.005% Tween 20 and pH was adjusted to 7.4. A 0.02% albumin stock consisted of HSA dissolved at 0.02% (w/v) in assay buffer. The cells used in this assay (clone FCW467-12A) were BHK cells with BHKTS13 as a parent cell line. The cells express the human GLP-1 receptor. The cells were grown at 5% CO2 in DMEM, 10% fetal calf serum, 1% Pen/Strep (Penicillin/Streptomycin) and 1.0 mg/ml of the selection marker G418. To make a membrane preparation the cells were grown to approximately 80% confluence. The cells were washed twice in phosphate-buffered saline and harvested. The cells were pelleted using a brief centrifugation and the cell pellet was kept on ice. The cell pellet was homogenised with ULTRA-THURRAX dispersing instrument for 20-30 seconds in a suitable amount of buffer 1 (e.g., 10 ml). The homogenate was centrifuged for 15 minutes. The pellet was re-suspended (homogenised) in 10 ml buffer 2 and centrifuged. This step was repeated once more. The resulting pellet was re-suspended in buffer 2 and the protein concentration was determined. The membranes were aliquoted and stored at minus 80° C. • 1. For the receptor binding assay 50 μl of the assay buffer was added to each well of an assay plate. • 2. Test compounds were serially diluted to give the following concentrations: 8×10EE-7 M, 8×10EE-8 M, 8×10EE-9 M, 8×10EE-10 M, 8×10EE-11 M, 8×10EE-12 M and 8×10EE-13 M. Twenty-five μl were added to appropriate wells in the assay plate. • 3. Cell membrane aliquots were thawed and diluted to their working concentration. Fifty μl were added to each well in the assay plate. • 4. WGA SPA beads were suspended in assay buffer at 20 mg/ml. The suspension was diluted to 10 mg/ml in assay buffer just prior to addition to the assay plate. Fifty μl were added to each well in the assay plate. • 5. The incubation was started by adding 25 μl of 480 pM solution of [125I]-GLP-1]-(7-36)NH2 to each well of the assay plate. A 25 μl aliquot was reserved for measuring total counts/well. • 6. The assay plate was incubated for 2 h at 30° C. • 7. The assay plate was centrifuged for 10 min. • 8. The assay plate was read in a Perkin Elmer TopCount NXT instrument. Calculations The data from the TopCount instrument were transferred to GraphPad Prism software. The software averaged the values for the replicates and performed a non-linear regression. IC50 values were calculated by the software and reported in nM. […]

IC50 [nM]	SMILES
0.2	CC[C@H](C)[C@H](NC(=O)[C@H](Cc1ccccc1)NC(=O)[C@H](CCC(=O)O)NC(=O)[C@H](CCCNC(=N)N)NC(=O)[C@H](C)NC(=O)[C@H](C)NC(=O)[C@H](CCC(N)=O)NC(=O)[C@H](CCCCNC(=O)CC[C@H](NC(=O)CC[C@H](NC(=O)COCCOCCNC(=O)COCCOCCNC(=O)CC[C@H](NC(=O)CCCCCCCCCCCCCCCCC(=O)O)C(=O)O)C(=O)O)C(=O)O)NC(=O)[C@H](CCC(=O)O)NC(=O)[C@H](CC(C)C)NC(=O)[C@H](Cc1ccc(O)cc1)NC(=O)[C@H](CCCCN)NC(=O)[C@H](CO)NC(=O)[C@@H](NC(=O)[C@H](CC(=O)O)NC(=O)[C@H](CO)NC(=O)[C@@H](NC(=O)[C@H](Cc1ccccc1)NC(=O)[C@@H](NC(=O)CNC(=O)[C@H](Cc1c[nH]cn1)NC(=O)C1(NC(=O)CCc2c[nH]cn2)CCC1)[C@@H](C)O)[C@@H](C)O)C(C)C)C(=O)N[C@@H](C)C(=O)N[C@@H](Cc1c[nH]c2ccccc12)C(=O)N[C@@H](CC(C)C)C(=O)N[C@@H](CC(C)C)C(=O)N[C@@H](CCCCN)C(=O)N[C@H](C(N)=O)[C@@H](C)O [Example 33, N^ε22-[(4S)-4-carboxy-4-[[(4S)-4-carboxy-4-[[2-[2-[2-[[2-[2-[2-[[(4S)-4-carboxy-4-(17-carboxyheptadecanoylamino)butanoyl]amino]ethoxy]ethoxy]acetyl]amino]ethoxy]ethoxy]acetyl]amino]butanoyl]amino]butanoyl]-[Imp7,Acb8,His9,Lys18,Lys22,Arg26,Leu33,Thr35]-GLP-1-(7-35)-peptide amide] (Desaminohistidyl-[Ac4c]HGTFTSDVSKYLEK([γGlu-γGlu-AEEA-AEEA-γGlu-C18 diacid])QAAREFIAWLLKT-NH2)
0.2	CC[C@H](C)[C@H](NC(=O)[C@H](Cc1ccccc1)NC(=O)[C@H](CCC(=O)O)NC(=O)[C@H](CCCNC(=N)N)NC(=O)[C@H](C)NC(=O)[C@H](C)NC(=O)[C@H](CCCNC(=N)N)NC(=O)[C@H](CCCCNC(=O)CC[C@H](NC(=O)CC[C@H](NC(=O)COCCOCCNC(=O)COCCOCCNC(=O)CC[C@H](NC(=O)CCCCCCCCCCCCCCCCC(=O)O)C(=O)O)C(=O)O)C(=O)O)NC(=O)[C@H](CCC(=O)O)NC(=O)[C@H](CC(C)C)NC(=O)[C@H](Cc1ccc(O)cc1)NC(=O)[C@H](CCCCN)NC(=O)[C@H](CO)NC(=O)[C@@H](NC(=O)[C@H](CC(=O)O)NC(=O)[C@H](CO)NC(=O)[C@@H](NC(=O)[C@H](Cc1ccccc1)NC(=O)[C@@H](NC(=O)CNC(=O)[C@H](Cc1c[nH]cn1)NC(=O)C1(NC(=O)CCc2c[nH]cn2)CCC1)[C@@H](C)O)[C@@H](C)O)C(C)C)C(=O)N[C@@H](C)C(=O)N[C@@H](Cc1c[nH]c2ccccc12)C(=O)N[C@@H](CC(C)C)C(=O)N[C@@H](CC(C)C)C(=O)N[C@@H](CCCCN)C(=O)N[C@H](C(N)=O)[C@@H](C)O [Example 32, N^ε22-[(4S)-4-carboxy-4-[[(4S)-4-carboxy-4-[[2-[2-[2-[[2-[2-[2-[[(4S)-4-carboxy-4-(17-carboxyheptadecanoylamino)butanoyl]amino]ethoxy]ethoxy]acetyl]amino]ethoxy]ethoxy]acetyl]amino]butanoyl]amino]butanoyl]-[Imp7,Acb8,His9,Lys18,Lys22,Arg23,Arg26,Leu33,Thr35]-GLP-1-(7-35)-peptide amide] (Desaminohistidyl-[Ac4c]HGTFTSDVSKYLEK([γGlu-γGlu-AEEA-AEEA-γGlu-C18 diacid])RAAREFIAWLLKT-NH2)
